The target in test [1] is T1, Nox2 (Homo sapiens, UniProt P04839).
T1 construct: expressed in transfected cells
T1 sequence (P04839 2-570 limits assumed): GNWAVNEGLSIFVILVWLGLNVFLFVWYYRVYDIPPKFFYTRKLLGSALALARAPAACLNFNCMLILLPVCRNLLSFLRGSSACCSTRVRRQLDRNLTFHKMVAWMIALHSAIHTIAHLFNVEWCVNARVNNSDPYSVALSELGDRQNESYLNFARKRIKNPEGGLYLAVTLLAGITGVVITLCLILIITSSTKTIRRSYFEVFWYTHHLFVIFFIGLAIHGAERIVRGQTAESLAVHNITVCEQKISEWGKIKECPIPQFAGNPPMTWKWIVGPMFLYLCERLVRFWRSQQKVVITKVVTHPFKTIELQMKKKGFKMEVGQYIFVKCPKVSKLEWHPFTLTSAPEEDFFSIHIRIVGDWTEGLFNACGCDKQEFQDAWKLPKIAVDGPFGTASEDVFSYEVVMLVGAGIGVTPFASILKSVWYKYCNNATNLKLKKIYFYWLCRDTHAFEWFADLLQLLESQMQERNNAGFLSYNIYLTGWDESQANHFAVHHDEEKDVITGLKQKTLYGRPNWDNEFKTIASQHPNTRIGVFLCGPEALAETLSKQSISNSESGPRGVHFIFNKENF
Description: ROS (superoxide) generation in whole COS-Nox2 cells, L-012 chemiluminescence. It counts as cell-based. The following applies: for IC50: whole COS-Nox2 cells stimulated with 5 μM PMA. From the text:
(§1) All cell culture reagents were obtained from Invitrogen, unless indicated. COS-22 (COS-7 cells stably expressing human p22^phox) and COS-Nox2 (a.k.a. COS-phox) cells (COS-7 cells stably expressing human p22^phox, Nox2, p47^phox and p67^phox) were kindly provided by Dr. Mary C. Dinauer (Indiana University, School of Medicine) (Price et al., Blood, 2002, 99:2653-2661). COS-22 cells were maintained in Dulbecco's Modified Eagle Medium (DMEM) with 4.5 g/L glucose, L-glutamine and sodium pyruvate containing 10% heat-inactivated fetal bovine serum (FBS), 100 units/ml penicillin and 100 μg/ml streptomycin (complete media) supplemented with 1.8 mg/ml G418 (Calbiochem/EMB Bioscience, Gibbstown, N.J.). COS-Nox2 cells were maintained in complete media supplemented with 1.8 mg/mL G418, 1 μg/mL puromycin (Sigma, St Louis, Mo.) and 0.2 mg/mL hygromycin B (Invitrogen, Carlsbad, Calif.). HEK-Nox5 cells were kindly provided by Dr. David Fulton (Georgia Health Sciences University) and maintained in complete media.
COS-Nox2, COS-Nox1/NOXO1/NOXA1, HEK-Nox5 and COS-22 cells were re-plated in OPTIMEM into 384-well white micro-plates (Greiner-Bio One GmbH, Germany) at a density of 2.5×10^3 cells/well for COS-Nox2 and 5×10^4 cells/well for all others. The cells were incubated at 37° C. in PBS containing […] L-012 for 10 min. Reaction was initiated by addition of 5 μM PMA in the case of Nox2 or 1 μM PMA/0.1 μM Ionomycin in the case of Nox5. Since Nox1 was constitutively active, Nox1-derived O2^•− was assessed by comparison to non-transfected cells (Cos22). Luminescence was quantified over time using a Biotek Synergy 4 Hybrid Multi-Mode Microplate Reader. The specificity of L-012 for O2^•− was confirmed by the addition of SOD (150 U/mL).
(§2) All data are expressed as means±SEM. IC50 values were determined using the GraphPad Prism software (GraphPad Software, San Diego, Calif.) for non-linear regression three-parameters, with constrain values of 100 and 0 for top and bottom, respectively, and assumes a Hill slope of 1.
Heterologous Nox1, 2, 4, and 5 cell systems were used as a testing paradigm to identify a probe molecule that inhibits Nox2 selectively over Nox1, 4, and 5. An acceptable probe would also show a lack of activity against XO, which also produces ROS. The latter screen would serve two purposes: (1) to eliminate drugs that inhibit an oxidase of distinct composition; and (2) to preclude agents that directly scavenge ROS. A cell-based primary assay using stable Nox2-transfected COS cells (Price et al., Blood 2002, 99:2653-2661) with L-012 chemiluminescence (Daiber et al., Free Radic. Biol. Med. 2004, 36:101-111) was used as a detection system for O2^•−-generation.

Test [2] has as its target T1, Nox2. The experiment in a line: ROS (H2O2) generation in whole COS-Nox2 cells, Amplex Red assay. The following applies: for IC50: whole COS-Nox2 cells stimulated with 5 μM PMA, Amplex Red; for Nox2 inhibitory activity: Table 2; for Selectivity for Nox2 over other Nox isoforms: cell-based assays for each Nox system. It counts as cell-based.
Description: as §1
H2O2 production was quantified in intact COS-Nox4 cells by Amplex® Red. Briefly, COS-Nox4 cells (5×10^4 cells/ml) were re-plated into 384-well plate in assay buffer (25 mM Hepes, pH 7.4, containing 0.12 M NaCl, 3 mM KCl, 1 mM MgCl2). The cells were incubated in the presence or absence of drugs at 37° C. in assay buffer supplemented with 0.1 mM Amplex® Red, and 0.32 U/ml of horse radish peroxidase (HRP) for 15 min. Fluorescence measurements were made using a Biotek Synergy 4 Hybrid Multi-Mode Microplate Reader with a 530/25-excitation and a 590/35-emission filter. The reaction was monitored at 37° C. for 1 h. A standard curve of known H2O2 concentrations was included on each plate. Nox4 activity was obtained by calculating the rate of H2O2 production as RFU/min and then subtracting the equivalent value given by non-transfected COS-22 cells. Similarly, H2O2 production by Nox2 cells was also measured by Amplex® Red as described above but in the presence of 150 U/mL of SOD and the reaction was initiated by addition of 5 μM PMA. The rate of H2O2 production in this case was calculated as RFU/min after the subtraction of the equivalent value given by non-stimulated cells. Data are expressed as % of vehicle control.
as §2

The term IC50 denotes the concentration that gives 50% inhibition.

SMILES strings stand for the structures. Where “and” joins values, the source holds several entries; their conditions need not be identical. Equal values may be shown once. A value given as a limit tells only on which side of the number the result lay.

As to `C=C(C)CC1NC2CC(C)(C)C1c1c(Br)cccc12` (racemic) [Compound 7, (±)-(1S,4R,9S)-5-Bromo-3,3-dimethyl-9-(2-methylallyl)-1,2,3,4-tetrahydro-1,4-(epimino-methano)-naphthalene], the “Activity in primary library screen” value in test [1] (screened at 100, 50, 25, and 12.5 μM, COS-Nox2 cells) was “hit”. Moreover, the IC50 was 45 µM and 46 µM in test [1]; 40 µM and 25 to 40 µM in test [2].

Consider `C=C(C)CC1NC2CC(C)(C)C1c1ccccc12` (racemic) [Compound 8, (±)-(1S,4R,9S)-3,3-Dimethyl-9-(2-methylallyl)-1,2,3,4-tetrahydro-1,4-(epiminomethano)-naphthalene], for which the IC50 in test [1] is more than 100 µM. In addition, in test [2], the “Nox2 inhibitory activity” value was “inactive” and the IC50 is more than 100 µM.

In the case of `C=C(C)CC1C2c3ccccc3C(CC2(C)C)N1Cc1cccc(F)c1` (racemic) [Compound 11a, (±)-(1S,4R,9S)-10-(3-Fluorobenzyl)-3,3-dimethyl-9-(2-methylallyl)-1,2,3,4-tetrahydro-1,4-(epiminomethano)naphthalene], the results for the IC50 in test [1] and in test [2] were 68 ± 33 µM and 30 ± 7.5 µM, respectively.

For the molecule `C=C(C)CC1C2c3c(Br)cccc3C(CC2(C)C)N1Cc1ccnc2ccccc12` (racemic) [Compound 11b, (±)-(1S,4R,9S)-5-Bromo-3,3-dimethyl-9-(2-methylallyl)-10-(quinolin-4-ylmethyl)-1,2,3,4-tetra-hydro-1,4-(epiminomethano)naphthalene], the concentration for half-maximal inhibition (IC50) in test [1] was more than 100 µM. Moreover, in test [2], the “Nox2 inhibitory activity” value is recorded as “completely abolished” and the IC50 is more than 100 µM.

Consider `C=C(C)CC1C2c3c(Br)cccc3C(CC2(C)C)N1Cc1c[nH]c2ccccc12` (racemic) [Compound 11c, (±)-(1S,4R,9S)-10-((1H-Indol-3-yl)methyl)-5-bromo-3,3-dimethyl-9-(2-methylallyl)-1,2,3,4-tetrahydro-1,4-(epiminomethano)naphthalene], for which the IC50 in test [1] and in test [2] was more than 100 µM each time. Moreover, the “Nox2 inhibitory activity” value in test [2] was “completely abolished”.

With `C=C(C)CC1C2c3c(Br)cccc3C(CC2(C)C)N1Cc1ccc2c(c1)OCO2` (racemic) [Compound 11d, (±)-(1S,4R,9S)-10-(Benzo[d][1,3]dioxol-5-ylmethyl)-5-bromo-3,3-dimethyl-9-(2-methylallyl)-1,2,3,4-tetrahydro-1,4-(epiminomethano)naphthalene], in test [1], the IC50 stood at 88 ± 22 µM. Further, in test [2], the “Nox2 inhibitory activity” value is listed as “decreased” and the IC50 was determined as 40 µM.

`C=C(C)CC1C2c3c(Br)cccc3C(CC2(C)C)N1Cc1cc(C)on1` (racemic) [Compound 11e, (±)-3-(1S,4R,9S)-5-Bromo-3,3-dimethyl-9-(2-methylallyl)-1,2,3,4-tetrahydro-1,4-(epimino-methano) naphthalen-10-yl)methyl)-5-methylisoxazole]: the results for the half-maximal inhibitory concentration (IC50) in test [1] and in test [2] were 48 ± 23 µM and 12 ± 0.5 µM, respectively.

For `C=C(C)CC1C2c3c(Br)cccc3C(CC2(C)C)N1Cc1cccc(F)c1` (racemic) [Compound 11f, (±)-(1S,4R,9S)-5-Bromo-10-(3-fluorobenzyl)-3,3-dimethyl-9-(2-methylallyl)-1,2,3,4-tetrahydro-1,4-(epiminomethano)naphthalene], the IC50 in test [1] worked out at 68 ± 22 µM; in test [2], 51 µM.

Take `C=C(C)CC1C2c3c(Br)cccc3C(CC2(C)C)N1CCCCC` (racemic) [Compound 11g, (±)-(1S,4R,9S)-5-Bromo-3,3-dimethyl-9-(2-methylallyl-10-pentyl-1,2,3,4-tetrahydro-1,4-(epiminomethano)naphthalene]: the IC50 in test [1] amounted to 20 ± 4.9 µM. In addition, in test [2], the “Selectivity for Nox2 over other Nox isoforms” value (from here on “Selectivity for Nox2”) was “specificity for Nox2 over Nox1, 4, and 5”; the IC50 amounted to 20 ± 1.9 µM.

Consider `C=C(C)CC1C2c3c(Br)cccc3C(CC2(C)C)N1Cc1cccs1` (racemic) [Compound 11h, (±)-(1S,4R,9S)-5-Bromo-3,3-dimethyl-9-(2-methylallyl)-10-(thiophen-2-ylmethyl)-1,2,3,4-tetrahydro-1,4-(epiminomethano)naphthalene], for which the IC50 in test [1] is 38 ± 11 µM. In test [2], the “Selectivity for Nox2” value is “specificity for Nox2 over Nox1, 4, and 5”; the IC50 stood at 32 ± 1.9 µM.

Turning to `C=C(C)CC1NC2CC(C)(C)C1c1c(-c3ccc(Cl)c(Cl)c3)cccc12` (racemic) [Compound 12a, (±)-(1S,4R,9S)-5-(3,4-Dichlorophenyl)-3,3-dimethyl-9-(2-methylallyl)-1,2,3,4-tetrahydro-1,4-(epiminomethano)naphthalene], in test [1], the IC50 came out at 9 ± 0.9 µM. In addition, in test [2], the “Nox2 inhibitory activity” value is listed as “comparable”, the “Selectivity for Nox2” value is listed as “greater selectivity over Nox1” and the IC50 was 64 ± 35 µM.

In the case of `C=C(C)CC1C2c3c(-c4ccc(Cl)c(Cl)c4)cccc3C(CC2(C)C)N1Cc1ccc2c(c1)OCO2` (racemic) [Compound 12b, (±)-(1S,4R,9S)-10-(Benzo[d][1,3]dioxol-5-ylmethyl)-5-(3,4-dichlorophenyl)-3,3-dimethyl-9-(2-methylallyl)-1,2,3,4-tetrahydro-1,4-(epiminomethano)-naphthalene], in test [1], the IC50 is more than 100 µM. In addition, in test [2], the “Nox2 inhibitory activity” value is “inactive” and the IC50 is more than 100 µM.

As to `C=C(C)CC1C2c3c(-c4ccc(Cl)c(Cl)c4)cccc3C(CC2(C)C)N1CCCCC` (racemic) [Compound 12c], in test [1], the IC50 was more than 100 µM. Further, in test [2], the “Nox2 inhibitory activity” value is “inactive” and the concentration for half-maximal inhibition (IC50) turned out to be 79 µM.

For the molecule `CC(C)CC1NC2CC(C)(C)C1c1c(Br)cccc12` (racemic) [Compound 13], the IC50 in test [1] came out at 31 ± 3.8 µM. In test [2], the “Nox2 inhibitory activity” value is given as “retained inhibitory activity” and the IC50 stood at 78 ± 19 µM.

With `C=C(C)CC1C2c3c(Br)cccc3C(CC2(C)C)N1S(C)(=O)=O` (racemic) [Compound 14a, (±)-(1S,4R,9S)-5-Bromo-3,3-dimethyl-9-(2-methylallyl)-10-(methylsulfonyl)-1,2,3,4-tetrahydro-1,4-(epiminomethano)naphthalene], the IC50 in test [1] was more than 100 µM. In test [2], the “Nox2 inhibitory activity” value is on record as “completely abolished activity” and the half-inhibitory concentration (IC50) came out at 27 ± 4.7 µM.

Source of the values: patent US10906876B2, “Tetrahydroisoquinolines as selective NADPH oxidase 2 inhibitors” (University of Pittsburgh—Of the Commonwealth System of …, priority 2013, dated 2021).
